Assays:
[1] = system: skin keratinocyte cell line HaCaT; assay: Resazurin assay, HaCaT cell viability, Example 2 (48 hours of treatment); format: cell-based, human; conditions: each alone, dose response over 48 hours
Protocol: (§1) The spontaneously immortalized, nontumorigenic skin keratinocyte cell line HaCaT was maintained in DMEM supplemented with 5% (v/v) FBS, 0.3 mg/ml glutamine and 0.1 mg/ml gentamicin at 37° C. with 5% CO2 in a humidified atmosphere. Subculture using trypsin-EDTA was performed every 3-4 days with split ratio of 1:3-1:4 to ensure actively proliferating cells.
Cells were seeded in 96 well plates in fully supplemented medium at a density of 3000 cells per well. Following 72 hour of cultivation, the cells were starved of serum in 0.25% FBS/DMEM overnight to halt proliferation, synchronize the cells and to increase cell sensitivity to treatment. Next day, the cells were treated with Compound A1 and calcineurin inhibitor Pimecrolimus for 48 hours. Resazurin was added according to the manufacturer's instruction (RnD Systems, UK) and left to incubate for […] in incubator at 37° C. with 5% CO2 in a humidified atmosphere before fluorescence was read at 544 nm excitation and 590 nm emission wavelength. The cells were observed under the microscope to evaluate possible morphology changes and signs of stress before addition of resazurin. The experiments were performed in series of 8 wells per treatment.

[2] = system: skin keratinocyte cell line HaCaT; assay: Resazurin assay, HaCaT proliferation and viability, Example 1 (24 hours of treatment); format: cell-based; conditions: Homo sapiens, 25 μM alone, read-out: reduction of proliferation and viability of HaCaT cells
Protocol: as §1
Cells were seeded in 96 well plates in fully supplemented medium at a density of 2500 cells per well. Following 72 hours of cultivation, the cells were starved of serum in 0.25% FBS/DMEM overnight to halt proliferation, synchronize and to increase cell sensitivity to treatment. On day 4, the cells were treated with cPLA2α inhibitor Compound A1 and immunomodulator Pimecrolimus (Karebay Biochem # Ki0907) and left to incubate for […] in incubator at 37° C. with 5% CO2 in a humidified atmosphere before fluorescence was read at 544 nm excitation and 590 nm emission wavelength. The cells were observed under the microscope to evaluate possible morphology changes and signs of stress before addition of resazurin. The experiments were performed in series of 8 wells per treatment and repeated 2-3 times.

CC[C@@H]1/C=C(\C)C[C@H](C)C[C@H](OC)[C@H]2O[C@@](O)(C(=O)C(=O)N3CCCC[C@H]3C(=O)O[C@H](/C(C)=C/[C@@H]3CC[C@H](Cl)[C@H](OC)C3)[C@H](C)[C@@H](O)CC1=O)[C@H](C)C[C@@H]2OC [Pimecrolimus]
activity against viability of the cells (dose response) [1]: active inhibitors
cytotoxicity at 25 µM [2]: ~15%
